Results: patent US20230357312A1, “Borylated Di-Peptide Amino Acid compositions for use in Boron Neutron Capture Therapy and methods thereof” (TAE Life Sciences, priority 2021, published 2023)
“Also recorded” adds a separate entry of the source.

Legend:
FaDu subcutaneous tumors = test: Biodistribution of His-BPA, FaDu tumors in vivo; set-up: species or system female CB17 SCID mice; conditions: His-BPA 4X higher dose than BPA-F
Method: In this experiment, biodistribution of His-BPA was evaluated in vivo using the following protocols. All animal studies were carried out following the “Guide for the Care and Use the Laboratory Animals,” 8th Ed. and Animal Welfare Act (USDA). Human hypopharyngeal squamous cell carcinoma FaDu cells were maintained in DMEM, supplemented with L-glutamine and 10% FBS.
Subcutaneous (s.c.) tumors were generated by injection of 2.5 × 10^6 cancer cells mixed at a 1:1 dilution with Matrigel (Corning Life Sciences) in the right flank of female CB17 SCID mice. Tumor sizes were determined by caliper measurements, and the tumor volume was calculated as width^2×Length/2, wherein width is the smallest dimension and length is the largest dimension. Tumors were allowed to grow untreated until they reached an approximate volume of 300 mm^3. At that point, animals were randomized and allocated to each treatment group based on tumor volume at the time of treatment initiation to ensure similar mean tumor size and variation in each group. Each group received a single dose of BPA at […] or a test article at […] via intravenous tail vein injection. […]
Furthermore, all compounds tested, with the exception of BPA were prepared as 80-100 mg/mL stocks. […] The digested tissues were analyzed by ICP OES to determine the boron concentration.

AsPC-1 cells [1] = test: Uptake inhibition by PEPT1 competitive inhibitor Gly-SAR; assay type: cell-based, human; conditions: 0.8 mM test compound, with and without Gly-SAR
Method: (§1) In this experiment, uptake of BPA and dipeptide His-BPA (0.8 mM of each) was carried out in FaDu and ASPC-1 in the presence and absence of the indicated concentrations of PEPT1 dipeptide transporter competitive inhibitor Gly-SAR. Normalized boron uptake was determined as in FIG. 15.

FaDu cells = test: as above; assay type: cell-based, human
Method: as §1

Solubility = assay type: physicochemical
CT26 xenografts [2] = test: BNCT tumor regression study, 6 minute irradiation; assay type: in vivo, BALB/c mice; conditions: 900 mg/kg, 6 minutes irradiation
Method: In this experiment, CT26 xenografts in BALB/c mice were dosed with 400 mg/kg of BPA or 900 mg/kg of His-BPA or BPA-BPA. Following one (1) hour treatment time, mice were irradiated for 6 minutes at the Kyoto University Research Reactor (Kyoto, Japan) 1 set at 5 megawatts. Data are the means ± SD of 3 mice per treatment group. Tumors were measured for growth out to 36 days and examined for tumor presence at 40 days. BPA and control groups were sacrificed at day 18 due to excessive tumor growth.

CT26 xenografts [3] = test: BNCT study, 12 or 6 minute irradiation at 5 MW; assay type: in vivo, BALB/c mice; conditions: 800 mg/kg, 12 minutes irradiation at 5 MW, monitored to 22 days
Method: Following one (1) hour of treatment time, mice were irradiated for either 12 minutes (33(A)) or 6 minutes (33(B)) at the Kyoto University Research Reactor (Kyoto, Japan) 1 set at 5 megawatts. Data are the means ± SD of 3 mice per treatment group. Tumors were measured for growth out to 22 days.

AsPC-1 cells [4] = test: Uptake of BPA and dipeptides in PEPT1 high expressing cells; assay type: cell-based, human; conditions: PEPT1 high expressing AsPC1 cells
Method: The indicated cancer cell line (A) or FaDu cells (B) were harvested from culture and washed twice with PBS. Cell lines were adjusted to 2 million cells/ml in Hanks Balanced Salt Solution (HBSS). BPA or dipeptide boron compounds were added to cells at the final concentration of 2.5 mM in HBSS and the treated cells were incubated at 37° C. 5% CO2 for 2 hrs with shaking. The cells were collected by centrifugation; washed with cold PBS twice and reconstituted in 1 ml of cold PBS. Then, 50 µl of cell suspension was removed, pelleted, and lysed using RIPA buffer and the protein concentration was determined using BCA assay. The remaining 950 µl was used for boron compounds uptake measurements using ICP-OES.
To this end, 0.5 mL of concentrated nitric acid was added to each cell pellet in a 15 mL conical tube. The tubes were capped and placed in an oven set at 80° C. for 3 hours. […] The boron content in each sample was then measured on an Agilent 5110 ICP-OES using an Agilent SPS4 Autosampler for sample introduction.
The data was analyzed using Agilent’s ICP Expert Software, version 7.4.2.10790. Boron was measured axially at the 249.772 nm wavelength and the internal standard Beryllium was measured axially at the 313.042 nm wavelength. […] Once determined, the boron measurement for each sample was normalized to protein content and final boron uptake results were expressed as ng boron/mg protein. […]

[5] = system: FaDu, Detroit-562, MeWo, HCC-1954, A549 and AsPC-1 human cancer xenograft models; test: Dose escalation of boron delivery, all tested xenograft models; assay type: in vivo, CB17 SCID mice; conditions: 1000 mg/kg, 120 minutes
Method: Tumors were harvested 120 minutes following treatment and boron content determined by ICP-OES. Data are the means ± SD of 5 mice per treatment group.

boron in the kidneys and pancreas compared to BPA-F (FaDu subcutaneous tumors): Significantly higher amounts of boron | tumor boron compared to BPA at 200 mg/kg [5]: higher boron levels
SMILES: N[C@@H](Cc1c[nH]cn1)C(=O)N[C@@H](Cc1ccc(B(O)O)cc1)C(=O)O [His-BPA, Histidine-BPA]
effect of Gly-SAR on boron uptake (AsPC-1 cells [1]): dose dependent inhibitory effect | boron signal in PEPT1 negative FaDu cells (FaDu cells; 0.8 mM): does deliver a boron signal | effect of Gly-SAR on boron uptake (FaDu cells; 0.8 mM test compound, with and without Gly-SAR): no effect | solubility (in words, compared to BPA) (Solubility): high solubility; also recorded: improved solubility | visual inspection and histological examination of the tumor area (CT26 xenografts [2]; one treated mouse): lack of tumor tissue and only scar tissue at the original tumor site | tumor growth after BNCT (CT26 xenografts [2]; sustained out to 36 days): significant tumor regression | tumor growth after BNCT (CT26 xenografts [3]): significant and similar growth inhibition, even regression | boron uptake compared to BPA (AsPC-1 cells [4]): to a higher level than BPA
